Measured values reported in US20210346500A1, “PHOTOOXIDATIVE INACTIVATION OF PATHOGENS INCLUDING SARS-CoV-2” (laneg GmbH, priority 2020, published 2021).
Entries after “also recorded” stand apart in the source; their conditions may differ.

What was measured:
Format in all cases: in vivo, human
SARS CoV-2 = details: active treatment group, 4 weeks after photodynamic treatments; ELISA not specific for SARS CoV vs SARS CoV-2
SARS-CoV-2 (COVID-19) = assay: Placebo-controlled clinical study of photodynamic treatment: course of disease and mortality in COVID-19 patients
Procedure: The photosensitizer used was methylene blue as a 1% solution of methylthioninium-chloride dissolved in a 5% glucose solution. (Heltschl GmbH, Germany). The methylene blue solution was applied by flushing and gargling in the oral cavity and throat, and by spraying in the nasal cavity.
(§1) The photodynamic excitation was performed using the Medlouxx PDT device, produced by laneg GmbH, Germany (www.medlouxx.com). The device applicator emits 660nm laser radiation with 240 mW power. The infected areas were irradiated for 5 minutes resulting in a dosage of about 72 J/cm2. This procedure: 1 min flushing followed by 5 minutes irradiation, was repeated 5 times, resulting in a total dosage of about 360 J/cm2. Before and immediately after the photodynamic treatments, the viral concentration was determined by PCR tests using the PCR real time testing facility ThermoFisher, QuantStudio 3.
The placebo patients received exactly same treatment procedure except that all placebo patients were treated with covered radiation heads. The patients were not able to distinguish an active versus a placebo treatment due to the filter function of the laser safety goggles.
(§2) We have treated 300 patients with the active treatment protocol and 300 patients with the placebo protocol described above. The active treatment group consisted of 164 men and 136 women, with an age range of 35-83 years. All patients signed informed consent prior to the start of the treatment protocol. The main inclusion citeria were fever, typical symptoms and a positive PCR test. The main exclusion criterium was a negative PCR test. Besides fever, we have found a significant variability in the initial presenting symptoms, like cough, loss of smell, loss of taste, headaches, fatigue and others.
We have characterized the course of the disease by the degree and duration of fever which was the most prominent symptom (see Table 1): […]

[1] = Treatment related adverse events in the clinical study; details: methylene blue + 660 nm irradiation, 300 patients
Procedure: as §1, §2

[2] = max fever 39.2° C., 3 weeks, methylene blue + 660 nm irradiation, 300 patients
[3] = max fever 39.5° C., 4-6 weeks, methylene blue + 660 nm irradiation, 300 patients
[4] = moderate = max fever 38.7° C., 2 weeks, methylene blue + 660 nm irradiation, 300 patients

In the case of CN(C)c1ccc2nc3ccc(=[N+](C)C)cc-3sc2c1 [methylene blue, methylthioninium-chloride], the “Patients with presence of antibodies (ELISA)” value (SARS CoV-2) is reported as 96%, the “Mortality Rate - Active Treatment Group” value (SARS-CoV-2 (COVID-19); 300 patients, methylene blue + 660 nm irradiation) is reported as 0.7% and the “Disease course Severe (Hospital Admission), Active Treatment Number” value (SARS-CoV-2 (COVID-19); [2]) is reported as 6 patients. The “Disease course Severe (Hospital Admission), Active Treatment Percentage” value (SARS-CoV-2 (COVID-19); [2]) was 2%, the “Disease course Severe (Hospital/ICU Admission), Active Treatment Number” value (SARS-CoV-2 (COVID-19); [3]) was 2 patients and the “Disease course Severe (Hospital/ICU Admission), Active Treatment Percentage” value (SARS-CoV-2 (COVID-19); [3]) was 0.6%. The “Disease course Mild, Active Treatment Number” value (SARS-CoV-2 (COVID-19); mild = max fever 37.7° C., 1 week, 1% methylene blue flushing/gargling/spraying + 660 nm, 240 mW, total about 360 J/cm2, 300 patients) was 192 patients, the “Disease course Mild, Active Treatment Percentage” value (SARS-CoV-2 (COVID-19); mild = max fever 37.7° C., 1 week, methylene blue + 660 nm irradiation, 300 patients) was 64% and the “Disease course Moderate, Active Treatment Number” value (SARS-CoV-2 (COVID-19); [4]) was 99 patients. For the same molecule, the “Disease course Moderate, Active Treatment Percentage” value (SARS-CoV-2 (COVID-19); [4]) was 33%, the “Severe course of disease (both severe categories together), active treatment group” value (SARS-CoV-2 (COVID-19); vs. 19% in placebo, methylene blue + 660 nm irradiation) was 2.6% and the “Attenuation of disease progression (mild plus moderate course), active treatment group” value (SARS-CoV-2 (COVID-19); vs. 81% in placebo, methylene blue + 660 nm irradiation) was 97%. For the same molecule, the “Treatment related adverse events / side effects” value [1] was “free of any side effects; also recorded: no treatment related adverse events”.
